Measurements published in article PMC9134009 (RSC Advances, 2021).

Tested on: human gastric cancer cell line SGC7901
Assay: CCK-8 in vitro cytotoxicity test, SGC7901
Assay type: cell-based
Conditions: read-out: IC50 (nM) SGC7901; CCK-8, 72 h exposure, n = 3

For `N.N.[Cl][Pt][Cl]` [cisplatin], the IC50 was 927 ± 77.6 nM.
